The results in this text go back to patent US7314729B2, “Methods and kits for transferases” (Promega Corp., priority 2002, dated 2008).

Some results are limits rather than exact numbers.

Assay type in all cases: biochemical
Assay [1] addresses T1, catalytic subunit of cAMP-dependent protein kinase (PKA) (Bos taurus, UniProt P00517).
T1 construct: purchased Promega Corp., Madison, Wis
Description: PKA kinase assay with inhibitors (bis-kemptide R110 substrate, Aminopeptidase M, fluorescence). The settings on record: 0.5 units PKA, 5 μM bis-kemptide, 50 μM ATP; FIG. 2.
Description: The kinase activity of the catalytic subunit of cAMP-dependent protein kinase (PKA) from Promega Corp., Madison, Wis. was tested in triplicate in a 96-well plates using the following reaction components: 40 mM Tris-HCl, pH 7.5, 20 mM MgCl2, 0.1 mg/ml bovine serum albumin (BSA), 50 μM ATP, and 5 μM of LRRASLG (SEQ. ID. NO: 1)-R110—GLSARRL, a bis-rhodamine peptide kinase substrate also known as “bis-kemptide.” The final reaction volume was 50 uL. […] All kinase reactions were incubated at room temperature for 20 minutes.
The kinase reactions were terminated by adding a termination/detection reagent (25 ul) containing 100 mM EDTA and 25 mU aminopeptidase M (Calbiochem, San Diego, Calif.).
Enzymatic activity of the kinase was measured by taking a reading of the fluorescence, at the time of addition of actinonin and 3 hrs later to test the stability of the signal, with an excitation at 480 nm and fluorescence emission at 520-530 nm.
PKA Assay With Inhibitors. The effects of various inhibitors of PKA kinase were tested.
Fluorescence was detected with an excitation of 480 nm and fluorescence emission at 520-530 nm.

The target in assay [2] is T2, serine/threonine phosphatase PP2A (Homo sapiens, UniProt P67775).
T2 construct: purchased Promega (Madison, Wis.)
T2 sequence (P67775 whole entry): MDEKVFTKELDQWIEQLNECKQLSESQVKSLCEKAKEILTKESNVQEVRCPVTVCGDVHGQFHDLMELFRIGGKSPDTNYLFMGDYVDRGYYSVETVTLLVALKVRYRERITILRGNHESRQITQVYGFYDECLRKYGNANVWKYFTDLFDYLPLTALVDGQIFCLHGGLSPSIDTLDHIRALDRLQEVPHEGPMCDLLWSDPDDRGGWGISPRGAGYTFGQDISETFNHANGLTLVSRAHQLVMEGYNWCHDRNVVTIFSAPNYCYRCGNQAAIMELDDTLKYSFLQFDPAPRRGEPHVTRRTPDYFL
Briefly: PP2A phosphatase assay with inhibitors (bis-STP-R110 phosphopeptide, Aminopeptidase M). On the procedure:
PP2A activity with STP-R-110. The phosphatase activity of phosphatase 2A (PP2A) was carried out in 50 ul volume containing 5 uM of phosphopeptide substrate bis-STP-R110 (RRAT(PO3)VA (SEQ. ID. NO:5)-R110-[…]), 40 mM Tris-HCl, pH 7.5, and 0.1 mg/ml BSA. Phosphatase reactions were initiated by adding the enzyme serine/threonine phosphatase PP2A from Promega (Madison, Wis.). The amount of PP2A added to each reaction was titrated in ½ increments, in a range from 0.0075 ng (0.015 munits) to 7.5 nanograms (15 munits), plus control reactions containing no enzyme. Phosphatase reactions were carried out for 10 minutes at room temperature in 96-well plates.
Phosphatase reactions were terminated with 25 ul of 2 uM okadaic acid ((9,10-Deepithio-9,10-didehydroacanthifolicin) (sodium salt)), a known inhibitor of PP2A. After termination, 25 mU/well of Aminopeptidase M was added in 40 mM Tris buffer, pH 7.5, 0.1 mg/ml BSA. The aminopeptidase reaction was incubated at room temperature, 25° C., for 90 minutes. Fluorescence was read as in Example 1.

Assay [3] addresses T3, tyrosine phosphatase PTP-1B (Homo sapiens, UniProt P18031).
T3 sequence (P18031 1-435): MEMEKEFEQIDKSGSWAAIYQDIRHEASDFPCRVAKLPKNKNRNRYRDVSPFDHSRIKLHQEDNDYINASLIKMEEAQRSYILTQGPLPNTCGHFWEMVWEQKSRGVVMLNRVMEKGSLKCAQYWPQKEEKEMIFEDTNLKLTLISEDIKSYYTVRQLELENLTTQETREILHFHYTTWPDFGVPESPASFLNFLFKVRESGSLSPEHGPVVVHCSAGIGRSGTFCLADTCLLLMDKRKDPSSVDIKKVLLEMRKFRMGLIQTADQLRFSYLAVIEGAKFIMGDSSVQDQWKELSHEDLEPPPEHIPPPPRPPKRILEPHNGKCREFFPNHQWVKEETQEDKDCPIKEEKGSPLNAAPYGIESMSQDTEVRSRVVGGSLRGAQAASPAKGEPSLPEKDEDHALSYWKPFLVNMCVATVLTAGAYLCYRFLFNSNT
Briefly: PTP-1B phosphatase assay with inhibitors (bis-PTK5p-R110 phosphopeptide, Aminopeptidase M). As to conditions: 25 mU/well PTP-1B, inhibitor zero up to 50 uM; FIG. 10.
Description: The effect of various inhibitors were tested on the dephosphorylation of bis-PTK5p-R110 by the enzyme tyrosine phosphatase PTP-1B. […] Inhibitors were included in the reactions at concentrations ranging from zero inhibitor up to 50 uM. Phosphatase reactions were initiated by adding PTB-1B, which was added to each reaction at 25 mU/well. Control reactions containing no enzyme were also run.
Phosphatase reactions were terminated with 25 ul of a solution of Na3VO4 and 25 mU/well of Aminopeptidase M. Reactions were incubated at room temperature for 60 minutes.

For `CC1CNCCN1S(=O)(=O)c1cccc2cnccc12` (stereo not drawn) [H7, 1-(5-isoquinolinesulfonyl)-2-methylpiperzine], the “effect on kinase activity of PKA (fluorescence output with increasing inhibitor concentration)” value in assay [1] was “without effect”. Regarding `N#CC(=C(N)Sc1ccccc1N)C(C#N)=C(N)Sc1ccccc1N` [U0126, 1,4-diamino-2,3-dicyano-1,4-bis-(2-aminophenylthio)butadiene], the “effect on kinase activity of PKA (fluorescence output with increasing inhibitor concentration)” value in assay [1] was “without effect”. On to `C=C1[C@@H](O)[C@@H]2O[C@]3(CC[C@H](/C=C/[C@@H](C)[C@@H]4CC(C)=C[C@@]5(O[C@H](C[C@@](C)(O)C(=O)O)CC[C@H]5O)O4)O3)CC[C@H]2O[C@@H]1[C@@H](O)C[C@H](C)[C@H]1O[C@@]2(CCCCO2)CC[C@H]1C` [okadaic acid, 9,10-Deepithio-9,10-didehydroacanthifolicin], for which, in assay [2], the IC50 is under 1 nM. Further, the “inhibition of dephosphorylation of the substrate by PP2A” value in assay [2] (2 nanograms PP2A (4 munits), 5 uM phosphopeptide substrate, inhibitor zero up to 100 nM, FIG. 7) is on record as “inhibited”. For `CN[C@@H]1C[C@H]2O[C@@](C)([C@@H]1OC)n1c3ccccc3c3c4c(c5c6ccccc6n2c5c31)C(=O)NC4` [staurosporin, (9S-(9α,10,11β,13α)-2,3,10,11,12,13-Hexahydro-10-methoxy-9-methyl-[1-(methylamino)-epoxy-1H,9H-diindolo[1,2,3-gh:3′,2′,1′-1m]pyrrolo{3,4-j]][1,7]benzodiazonin-1-one)], in assay [3], the “inhibition of dephosphorylation of bis-PTK5p-R110 by PTP-1B” value was “had no effect”. For Sodium vanadate [Na3VO4], the “inhibition of dephosphorylation of bis-PTK5p-R110 by PTP-1B” value in assay [3] is on record as “inhibition of PTP 1B enzyme activity”.
